Measurements reported in patent US20240376098A1, “METHODS OF TREATMENT USING BCN057, BCN077 AND ANALOGS” (BCN Biosciences L.L.C., priority 2021, published 2024).

Key:
[1] = test system: Panc-1 cells; experiment: ATPLite luminescence viability assay on Panc-1 cells; type: cell-based, human
Method: Viability Assay. To determine the effects of BCN 057 in comparison and combination with irinotecan, Oxaloplatin and 5Fu, the ATPLite Luminescence Assay System was used according to manufacturer's instructions. On day 1, 3,000 Panc-1 cells per well were seeded in 96-well white, opaque sterile tissue culture treated microplates and incubated for 24 hours in complete medium at 37° C., 5% CO2. On day 2, the media was exchanged with media containing various combinations of 10 uM BCN 057, 25 μM 5-Fu, 75 μM Oxaloplatin, and 50 μM Irinotecan and incubated at 37° C., 5% CO2. On day 3,4, and 5, the ATP Lite Assay was performed according to manufacturer's instructions for the 24, 48, and 72 hr timepoints. Unless otherwise stated, values were represented as a percent of the control which is the vehicle for each drug. No difference was found in viability between any control vehicle.
Statistics. The results are shown by calculating the averages (±Standard deviation) in comparison to untreated controls with the indicated (n). The Percent Viability was calculated by dividing the average of each condition by the average of the untreated control (vehicle). Statistical analysis was performed in excel.
The first example entailed studying the effect of BCN057 in pancreatic cancer cells. Panc-1 cells, a G12D KRAS mutant cell line was treated with BCN057 for 48 hours.
All data points are n=5. Control (ND) received no drug and BCN057 at 2, 5, 10, and 20 μM final concentration. The Percent viability was calculated by dividing the average value for each condition by the average value of the control cells (V) at each time point.
Further, these doses span the concentrations found in plasma during efficacy studies in rodents. Subsequently, microscope images appeared to show cell blebbing and fragmentation shortly after application of BCN057 indicating possible apoptosis. […] Blebbing and cell fragmentation was noted within 20 min of incubation with drug (as shown with the arrows). Cell fragmentation was seen between 20-30 minutes after exposure to the drug.
The anti-apoptotic phenotype of KRAS is associated with significant resistance to chemotherapy. Thus, to examine whether BCN057 enhances cytotoxic chemotherapeutic agents such as 5-Fluorouracil, also known as 5FU, Panc1 cells were pre-treated with 5FU as reported and incubated with BCN057. […] The effect followed a dose dependent response for BCN057 and was consistent over 24, 48 and 72 hrs after BN057 treatment (24 and 48 hrs not shown).
All data points are n=5. Control (ND) received no drugs. Study groups include 5FU (50 μM), 057 (BCN057 at 2, 5, 10, and 20 μM or 5FU+BCN057 (BCN057 at 2, 5, 10, and 20 μM in combination with 5FU at 50 μM). The Percent viability was calculated by dividing the average value for each condition by the average value of the control cells (V) with standard deviation at each time point
Combined chemotherapy and cytotoxicity: Other cytotoxic drugs commonly used in the treatment of pancreatic or colorectal cancer were then examined in similar fashion such as those within FOLFIRINOX such as 5FU, Irinotecan and Oxaliplatin in combination equivalent doses of BCN057 over 24, 48 and 72 hours.
FIG. 6 is a histogram showing the cytotoxicity of Oxaliplatin and Irinotecan, individually or in combination with 5FU and BCN057 on Panc-1 cells. Cells were incubated with Oxaliplatin, Irinotecan and 5FU with concentrations at 10 μM each and BCN057 (057) also at 10 μM with n=4 for all assays.

[2] = test system: PTEN; experiment: Western blot of PTEN protein expression in Panc-1 cells; type: cell-based, human; details: 10 μM, 20 minutes to 24 hours
Method: Western Blot: Cells were harvested and lysed in cell lysis buffer on ice for 15 minutes and the lysate was centrifuged at 13,000 rpm at 4° C. for 10 minutes. The supernatant was transferred into a new tube for BCA protein quantification assay (Thermo Fisher Scientific) and the samples were normalized. 3× loading buffer (Cell Signaling) was added the protein sample and boiled for 5 minutes. The samples were used for SDS-PAGE analysis and transferred to nitrocellulose membrane. The membrane was blocked with 5% BSA at room temperature for 1 hour and incubated with primary antibody at 4° C. overnight. The membrane was washed with 1×TBST 5 minutes for 3 times and incubated with horseradish peroxidase-conjugated secondary antibody for 1 hour at room temperature. The protein was visualized by SuperSignal West Pico Stable Peroxide Solution (Thermo Fisher Scientific). The blot was visualized by chemiluminescence using a BioRad Versadoc Imaging System. In KRAS dependent tumors, c-Jun acts to suppress Phosphatase and tensin homolog (PTEN) expression at the promoter level and that suppression of PTEN expression is essential for anti-apoptosis and cellular transformation by oncogenic RAS. Thus, we investigated PTEN expression levels in response to BCN057. […] FIG. 4A is a western blot of Phospho-c-Jun (T-91/93). […] Phosphorylation of c-Jun at T-91/93 is known to induce apoptosis. […]

For `COc1ccc2cc(-c3nc4ccc(C)cn4c3NCc3ccco3)c(=O)[nH]c2c1` [BCN057, 3-[(Furan-2-ylmethyl)-amino]-2-(7-methoxy-2-oxo-1,2-dihydro-quinolin-3-yl)-6-methyl-imidazo[1,2-a]pyridin-1-ium], the Panc1 cells viability ([1]; 48 hours, increasing doses of BCN057) was “significant decrease in Panc1 cells viability”, the IC50 ([1]; Homo sapiens, Panc-1, 72 hours post application, 2, 5, 10, 20 μM, Quest Graph IC50 Calculator) was 1.33 µM and the “Cytotoxicity of combination of 5FU and BCN057” value ([1]; Panc1, 5FU 50 μM plus BCN057 2-20 μM, 24, 48 and 72 hrs) was “greater cytotoxicity than 5FU alone”. The “Tumor viability on addition of BCN057 to Oxaliplatin, Irinotecan and 5FU” value ([1]; Panc-1, 10 μM each, over 72 hrs) was “general trend of decreasing tumor viability”, the “cytotoxicity toward the cells in the dose response curve” value ([1]; Panc-1, 2-20 μM) was “potent cytotoxicity toward the cells at all concentrations” and the “Sensitivity to cytotoxic effect of 5FU, Irinotecan and Oxaliplatin in combination with BCN057” value ([1]; Panc-1, 24, 48 and 72 hours, all time points except Irinotecan and oxaliplatin at 72 hours) was “statistically significant sensitivity”. For the same molecule, the PTEN protein expression [2] was “increased expression up to 1 hr of PTEN protein”.
